biological target: T1, Rat liver microsomal squalene synthetase (Rattus norvegicus, UniProt Q02769); test: In vitro inhibition of squalene synthetase; type: biochemical; conditions: 10 µM test compound; rat liver microsomes, labelled farnesyl pyrophosphate, 10 minutes at 37 °C; compared to controls with no test compound
T1 construct: Rat liver microsome, the source of enzyme; from tissue; host or cells: rat liver microsomes
T1 sequence (Q02769 1-416): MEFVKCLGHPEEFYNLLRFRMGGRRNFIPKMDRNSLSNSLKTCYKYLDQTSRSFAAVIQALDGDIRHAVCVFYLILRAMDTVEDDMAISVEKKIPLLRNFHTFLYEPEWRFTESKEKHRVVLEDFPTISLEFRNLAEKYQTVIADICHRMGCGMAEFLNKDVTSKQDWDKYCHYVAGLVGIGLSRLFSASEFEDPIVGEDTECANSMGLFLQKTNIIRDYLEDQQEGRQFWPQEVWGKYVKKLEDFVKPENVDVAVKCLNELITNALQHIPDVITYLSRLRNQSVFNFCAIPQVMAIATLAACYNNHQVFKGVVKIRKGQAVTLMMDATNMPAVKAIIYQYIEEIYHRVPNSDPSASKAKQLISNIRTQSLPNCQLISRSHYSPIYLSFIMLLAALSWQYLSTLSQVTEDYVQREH
Method: In vitro inhibition of squalene synthetase may be measured by the following procedure. Rat liver microsomal squalene synthetase activity was measured using farnesyl pyrophosphate as a substrate and quantitating squalene synthesis using labelled farnesyl pyrophosphate and counting the squalene formed. Rat liver microsome, the source of enzyme, was prepared according to the method of Gillies, P. J., et al., Exp. Molc. Pathol. 44: 329-339 (1986), a modification of the procedure of Erickson, S. K., and Cooper, A. D., Metabolism, 29: 991-996 (1980). […] Oxygen was excluded from the closed incubation tube by degassing with nitrogen. The reaction was terminated by the addition of ethanolic KOH and after degassing with N2, the microsomal membranes were solubilized by heating at 60 °C for 30 minutes. The squalene was extracted into hexane, and the squalene was separated from all other radioactive molecules by passage over an activated alumina column. […] The per cent inhibition at a dose of 10 µM (or 1 µM) compared to controls with no test compound was determined. […]

Structure (SMILES)	inhibition at 10 µM
CCCN(Cc1ccc(OC2CCCCC2)cc1)C(=O)[C@H]1[C@@H](C(=O)O)[C@H](C(=O)O)[C@@H]1C(=O)N(CCC)Cc1ccc(OC2CCCCC2)cc1 [Example 61B, (1α,2β,3β,4α)-1,2-Di[N-propyl-N-(4-cyclohexyloxybenzyl)aminocarbonyl]cyclobutane-3,4-dicarboxylic acid]	43%
CCCN(Cc1ccc(Oc2ccccc2)cc1)C(=O)[C@H]1[C@@H](C(=O)O)[C@H](C(=O)O)[C@@H]1C(=O)N(C)CC/C=C(\C)CCC=C(C)C [Example 62B, (1α,2β,3β,4α)-1-[N-Propyl-N-(4-phenoxybenzyl)aminocarbonyl]-2-[N-methyl-N-(homogeranyl)aminocarbonyl]cyclobutane-3,4-dicarboxylic acid]	83%
CCCN(Cc1ccc(Oc2ccccc2)cc1)C(=O)[C@H]1[C@@H](C(=O)O)[C@H](C(=O)O)[C@@H]1C(=O)N(Cc1ccccc1)Cc1ccc(Oc2ccccc2)cc1 [Example 63, (1α,2β,3β,4α)-1-[N-Propyl-N-(4-phenoxybenzyl)aminocarbonyl]-2-[N-benzyl-N-(4-phenoxybenzyl)aminocarbonyl]cyclobutane-3,4-dicarboxylic acid]	90%
CCCN(Cc1ccc(Oc2ccccc2)cc1)C(=O)[C@H]1[C@@H](C(=O)O)[C@H](C(=O)O)[C@@H]1C(=O)NCc1ccc(Oc2ccccc2)cc1 [Example 64D, (1α,2β,3β,4α)-1-[N-Propyl-N-(4-phenoxybenzyl)aminocarbonyl]-2-[N-(4-phenoxybenzyl)aminocarbonyl]cyclobutane-3,4-dicarboxylic acid]	45%
O=C(O)[C@H]1[C@H](C(=O)O)[C@H](C(=O)OCc2ccc(Oc3ccccc3)cc2)[C@H]1C(=O)OCc1ccc(Oc2ccccc2)cc1 [Example 65B, (1α,2β,3β,4α)-1,2-Di-(4-phenoxybenzyloxycarbonyl)-3,4-dicarboxylic acid]	58%
CCCN(C(=O)[C@H]1[C@@H](C(=O)O)[C@H](C(=O)O)[C@@H]1C(=O)N(CCC)c1ccc(Nc2ccccc2)cc1)c1ccc(Nc2ccccc2)cc1 [Example 66C, (1α,2β,3β,4α)-1,2-Di[N-propyl-N-(4-phenylaminophenyl)aminocarbonyl]cyclobutane-3,4-dicarboxylic acid]	33%
CCCN(Cc1ccc(Nc2ccccc2)cc1)C(=O)[C@H]1[C@@H](C(=O)O)[C@H](C(=O)O)[C@@H]1C(=O)N(CCC)Cc1ccc(Nc2ccccc2)cc1 [Example 67C, (1α,2β,3β,4α)-1,2-Di[N-propyl-N-(4-phenylaminobenzyl)aminocarbonyl]cyclobutane-3,4-dicarboxylic acid]	87%
CCCN(Cc1ccc(Oc2ccccc2)cc1)C(=O)C1C(CO)C(C(=O)O)C1C(=O)N(CCC)Cc1ccc(Oc2ccccc2)cc1 (stereo not drawn) [Example 70B, (1α,2β,3β,4α)-1,2-Di[N-propyl-N-(4-phenoxybenzyl)aminocarbonyl]-4-hydroxymethyl-cyclobutane-3-carboxylic acid]	80%
CCCN(Cc1ccc(Oc2ccccc2)cc1)C(=O)C1C(C=NO)C(C(=O)O)C1C(=O)N(CCC)Cc1ccc(Oc2ccccc2)cc1 (stereo not drawn) [Example 71C, (1α,2β,3β,4α)-1,2-Di[N-propyl-N-(4-phenoxybenzyl)aminocarbonyl]-4-[(hydroxyimino)methyl]-cyclobutane-3-carboxylic acid]	77%
CCCN(Cc1cccc(Oc2ccccc2)c1)C(=O)C1C(C(=O)O)C(C(=O)O)C1C(=O)N(CCC)Cc1cccc(Oc2ccccc2)c1 (stereo not drawn) [Example 81B, (1α,2β,3β,4α)-1,2-Di[N-propyl-N-(3-phenoxybenzyl)aminocarbonyl]cyclobutane-3.4-dicarboxylic acid]	73%
CCCN(Cc1ccc(Oc2ccccc2)o1)C(=O)C1C(C(=O)O)C(C(=O)O)C1C(=O)N(CCC)Cc1ccc(Oc2ccccc2)o1 (stereo not drawn) [Example 82B, (1α,2β,3β,4α)-1,2-Di[N-propyl-N-(5-phenoxyfurfuryl)aminocarbonyl}cyclobutane-3,4-dicarboxylic acid]	67%
CCCN(Cc1ccc(Oc2ccccc2)s1)C(=O)C1C(C(=O)O)C(C(=O)O)C1C(=O)N(CCC)Cc1ccc(Oc2ccccc2)s1 (stereo not drawn) [Example 83B, (1α,2β,3β,4α)-1,2-Di[N-propyl-N-(5-phenoxythien-2-ylmethyl)aminocarbonyl]cyclobutane-3,4-dicarboxylic acid]	85%
CCCN(Cc1ccc(Oc2ccco2)cc1)C(=O)C1C(C(=O)O)C(C(=O)O)C1C(=O)N(CCC)Cc1ccc(Oc2ccco2)cc1 (stereo not shown) [Example 84G]	89%
CCCN(Cc1ccc(Cn2cccc2)cc1)C(=O)C1C(C(=O)O)C(C(=O)O)C1C(=O)N(CCC)Cc1ccc(Cn2cccc2)cc1 (stereo not drawn) [Example 86D, (1α,2β,3β,4α)-1,2-Di[N-propyl-N-(4,(pyrrol-1-ylmethyl)benzyl)aminocarbonyl]cyclobutane-3,4-dicarboxylic acid]	86%
CCCN(Cc1ccc(Oc2cccc(C)c2)cc1)C(=O)C1C(C(=O)O)C(C(=O)O)C1C(=O)N(CCC)Cc1ccc(Oc2cccc(C)c2)cc1 (stereo not drawn) [Example 87B, (1α,2β,3β,4α)-1,2-Di{N-propyl-[4-(3'-methyl)phenoxybenzyl]aminocarbonyl}cyclobutane-3,4-dicarboxylic acid]	72%
CCCN(Cc1ccc(Oc2ccc3ccccc3c2)cc1)C(=O)C1C(C(=O)O)C(C(=O)O)C1C(=O)N(CCC)Cc1ccc(Oc2ccc3ccccc3c2)cc1 (stereo not drawn) [Example 88, (1α,2β,3β,4α)-1,2-Di[N-propyl-N-(4-naphth-2-yloxybenzyl)aminocarbonyl]cyclobutane-3,4-dicarboxylic acid]	86%
CCCN(Cc1ccc(Oc2ccccc2)c(C)c1)C(=O)C1C(C(=O)O)C(C(=O)O)C1C(=O)N(CCC)Cc1ccc(Oc2ccccc2)c(C)c1 (stereo not drawn) [Example 89C, (1α,2β,3β,4α)-1-2-Di{N-propyl-[3-methyl-4-phenoxybenzyl]aminocarbonyl}cyclobutane-3,4-dicarboxylic acid]	88%
CCCN(Cc1ccc(Oc2ccc(C)cc2)cc1)C(=O)C1C(C(=O)O)C(C(=O)O)C1C(=O)N(CCC)Cc1ccc(Oc2ccc(C)cc2)cc1 (stereo not drawn) [Example 90, (1α,2β,3β,4α)-1,2-Di[N-propyl-N-(4-(4-methyl-1-phenoxy)benzyl)aminocarbonyl]cyclobutane-3,4-dicarboxylic acid]	53%

same assay, conditions: values marked * in Table 1: 1 µM test compound; rat liver microsomes, labelled farnesyl pyrophosphate, 10 minutes at 37 °C

Structure (SMILES)	inhibition at 1 µM
CCCN(Cc1ccc(Sc2ccccc2)cc1)C(=O)C1C(C(=O)O)C(C(=O)O)C1C(=O)N(CCC)Cc1ccc(Sc2ccccc2)cc1 (stereo not drawn) [Example 68B, (1α,2β,3β,4α)-1,2-Di[N-propyl-N-(4-phenylthiobenzyl)aminocarbonyl]cyclobutane-3,4-dicarboxylic acid]	84%
CCCN(Cc1ccc(COc2ccccc2)cc1)C(=O)C1C(C(=O)O)C(C(=O)O)C1C(=O)N(CCC)Cc1ccc(COc2ccccc2)cc1 (stereo not drawn) [Example 69E, (1α,2β,3β,4α)-1,2-Di[N-propyl-N-[4-phenoxymethylbenzyl]aminocarbonyl]cyclobutane-3,4-dicarboxylic acid]	56%
CCCN(Cc1ccc(Oc2ccccc2)cc1)C(=O)C1C(C(=O)O)C(c2nn[nH]n2)C1C(=O)N(CCC)Cc1ccc(Oc2ccccc2)cc1 (stereo not shown) [Example 72C]	51%
CCCN(Cc1ccc(Oc2ccccc2)cc1)C(=O)C1C(Cc2nn[nH]n2)C(C(=O)O)C1C(=O)N(CCC)Cc1ccc(Oc2ccccc2)cc1 (stereo not shown) [Example 73B]	75%
CCCN(Cc1ccc(Oc2ccccc2)cc1)C(=O)C1C(NC(=O)C(=O)O)C(C(=O)O)C1C(=O)N(CCC)Cc1ccc(Oc2ccccc2)cc1 (stereo not shown) [Example 74D]	55%
CCCN(Cc1ccc(Oc2ccccc2)cc1)C(=O)C1C(NC(=O)CCC(=O)O)C(C(=O)O)C1C(=O)N(CCC)Cc1ccc(Oc2ccccc2)cc1 (stereo not drawn) [Example 75B, (1α,2β,3β,4α)-1,2-Di[N-propyl-N-(4-phenoxybenzyl)aminocarbonyl]-4-(3-carboxypropionylamino)cyclobutane-3-carboxylic acid]	73%
CCCN(Cc1ccc(Oc2ccccc2)cc1)C(=O)C1C(C=CC(=O)O)C(C(=O)O)C1C(=O)N(CCC)Cc1ccc(Oc2ccccc2)cc1 (stereo not shown) [Example 76B]	57%
CCCN(Cc1ccc(Oc2ccccc2)cc1)C(=O)C1C(CCC(=O)O)C(C(=O)O)C1C(=O)N(CCC)Cc1ccc(Oc2ccccc2)cc1 (stereo not shown) [Example 77B]	51%
CCCN(Cc1ccc(Oc2ccccc2)cc1)C(=O)C1C(C(=O)O)C(C(O)C(=O)O)C1C(=O)N(CCC)Cc1ccc(Oc2ccccc2)cc1 (stereo not drawn) [Example 78B, (1α,2β,3β,4α)-1,2-Di[N-propyl-N-(4-phenoxybenzyl)aminocarbonyl]-4-(1-carboxy-1-hydroxymethyl)cyclobutane-3-carboxylic acid]	82%
CCCN(Cc1ccc(Oc2nccs2)cc1)C(=O)C1C(C(=O)O)C(C(=O)O)C1C(=O)N(CCC)Cc1ccc(Oc2nccs2)cc1 (stereo not shown) [Example 85]	56%
